Our source for the IC50 values is patent US6147100A, “Pyrrolidine derivatives having phospholipase A2 inhibitory activity” (Shionogi & Co., Ltd., priority 1997, dated 2000).

SMILES strings stand for the structures.

For experiment [1], the system named is production of prostaglandin E2 by human fibroblasts. As to the kind of experiment: Inhibition of Production of Prostaglandin E2 in Human Fibroblasts (IL-1 stimulation). In kind it is cell-based. The following applies: Fibroblast; human fibroblasts under stimulation with IL-1. On the procedure:
Test Example 2 Inhibition of Production of Prostaglandin E2 in Human Fibroblasts.
In order to examine the availability of the composition for inhibiting cytosolic phospholipase A2 (cPLA2) on the cells, the compounds of the present invention were tested for the effect on the production of prostaglandin E2 by human fibroblasts under the stimulation with IL-1 according to the method of J. M. Dayer et al (CACHECTIN/TUMOR NECROSIS FACTOR STIMULATES COLLAGENASE AND PROSTAGLANDIN E2 PRODUCTION BY HUMAN SYNOVIAL CELLS AND DERMAL FIBROBLASTS; J. M. Dayer, B, Beutler and A, Cerami, J. EXP. Med., 1985, 162, 2163-2168.).

A further experiment addresses T1, cPLA2 (Homo sapiens, UniProt P47712).
T1 sequence (P47712 1-749): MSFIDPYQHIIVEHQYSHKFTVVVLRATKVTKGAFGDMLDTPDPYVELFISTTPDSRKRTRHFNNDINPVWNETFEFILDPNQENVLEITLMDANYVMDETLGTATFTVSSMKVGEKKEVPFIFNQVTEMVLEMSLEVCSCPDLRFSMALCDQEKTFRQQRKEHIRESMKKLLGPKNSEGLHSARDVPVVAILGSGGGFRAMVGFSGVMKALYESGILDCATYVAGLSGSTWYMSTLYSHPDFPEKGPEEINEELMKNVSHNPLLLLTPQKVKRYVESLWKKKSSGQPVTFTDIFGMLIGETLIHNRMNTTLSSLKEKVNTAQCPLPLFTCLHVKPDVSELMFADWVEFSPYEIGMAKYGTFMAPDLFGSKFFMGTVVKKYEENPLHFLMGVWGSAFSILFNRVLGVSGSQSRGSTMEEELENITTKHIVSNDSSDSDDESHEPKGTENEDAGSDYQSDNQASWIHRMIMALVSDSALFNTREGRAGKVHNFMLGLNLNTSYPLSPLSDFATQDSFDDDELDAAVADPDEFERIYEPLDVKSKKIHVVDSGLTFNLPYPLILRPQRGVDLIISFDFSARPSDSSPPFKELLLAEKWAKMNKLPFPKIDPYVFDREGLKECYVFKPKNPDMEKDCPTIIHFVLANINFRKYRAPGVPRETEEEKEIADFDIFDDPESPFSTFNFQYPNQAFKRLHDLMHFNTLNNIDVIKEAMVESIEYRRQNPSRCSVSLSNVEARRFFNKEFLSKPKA
As to the kind of experiment: cPLA2 Inhibitory Activity. It is filed as biochemical. The following applies: 1-palmitoyl-2-[14C]-arachidonoyl-sn-glycero-3-phosphocholine 2.5 μM, sn-1,2-dioleoylglycerol 1.25 μM; pH 7.5, 15 min at 37° C. On the procedure:
Test Example 1 cPLA2 Inhibitory Activity The compounds of the present invention were tested for the cPLA2 inhibitory activity according to the method disclosed in […]. Roberts, […], and J. E. Putnam, J. Biol. Chem., 1991, 266, 5268-5272 as outlined below. […] The reaction mixture includes 50 mM HEPES buffer (pH 7.5), 1 mM calcium chloride, 150 mM sodium chloride, 0.1 mg/ml bovine serum albumin, and 1.7 mM dithiothreitol. To the reaction mixture was added the compound of the present invention and the substrate solution. The reaction was allowed to start by adding an enzyme and continued for 15 min at 37° C. The fatty acids released by the reaction were extracted by the method described in V. P. Dole, and H. Meinertz, J. Biol. Chem., 1960, 235, 2595-2599 and its radiation activity was measured on a liquid scintillation counter. Control was obtained by conducting the experiment in the same manner except that a compound of the present invention was not added.

Consider `O=C1NC(=O)/C(=C/c2ccc(C(=O)NC[C@@H]3C[C@@H](OCc4ccccc4-c4ccccc4)CN3C(=O)c3ccccc3C(=O)c3cccs3)cc2)S1` [Compound A-19], for which the IC50 in experiment [1] was found to be 160 nM; against cPLA2 it was 1000 nM.
With `O=C1NC(=S)S/C1=C\c1ccc(C(=O)NC[C@@H]2C[C@@H](OCc3ccccc3-c3ccccc3)CN2C(=O)c2ccccc2C(=O)c2ccc(F)cc2)cc1` [Compound A-20], the IC50 stood at 350 nM in experiment [1] and 300 nM on cPLA2.
In the case of `Cc1ccc(C(=O)c2ccccc2C(=O)N2C[C@H](OCc3ccccc3-c3ccccc3)C[C@H]2CNC(=O)c2ccc(/C=C3\SC(=O)NC3=O)cc2)cc1` [Compound A-21], the IC50 in experiment [1] was found to be 230 nM; against cPLA2 it was 430 nM.
As to `O=C1NC(=O)/C(=C/c2ccc(C(=O)NC[C@@H]3C[C@@H](OCc4ccccc4-c4ccccc4)CN3C(=O)c3ccccc3C(=O)c3ccc(Cl)cc3)cc2)S1` [Compound A-22], the IC50 in experiment [1] stood at 180 nM; on cPLA2 it was 300 nM.
Turning to `Nc1ccccc1C(=O)c1ccccc1C(=O)N1C[C@H](OCc2ccccc2-c2ccccc2)C[C@H]1CNC(=O)c1ccc(/C=C2\SC(=O)NC2=O)cc1` [Compound A-23], the figures for the IC50 (in experiment [1]; at cPLA2) were 1200 nM and 460 nM, respectively.
Take `O=C1NC(=O)/C(=C/c2ccc(C(=O)NC[C@@H]3C[C@@H](OCc4ccccc4-c4ccccc4)CN3C(=O)c3ccccc3C(=O)c3ccc(F)cc3F)cc2)S1` [Compound A-25]: the results for the IC50 (in experiment [1]; at cPLA2) were 800 nM and 48 nM, respectively.
For `O=C1NC(=O)/C(=C/c2ccc(C(=O)NC[C@@H]3C[C@@H](OCc4ccccc4-c4ccccc4)CN3C(=O)c3cccc4c3C(=O)c3ccccc3-4)cc2)S1` [Compound A-26] the same measures were 170 nM and 1000 nM.
Consider `Cc1ccc(C(=O)c2ccccc2C(=O)N2C[C@H](OCc3ccccc3-c3ccccc3)C[C@H]2CNC(=O)c2ccc(/C=C3\SC(=S)NC3=O)cc2)cc1` [Compound A-27], for which the IC50 in experiment [1] amounted to 1200 nM; against cPLA2, 430 nM.
Regarding `O=C1NC(=S)S/C1=C\c1ccc(C(=O)NC[C@@H]2C[C@@H](OCc3ccccc3-c3ccccc3)CN2C(=O)c2ccccc2C(=O)c2ccc(Cl)cc2)cc1` [Compound A-28], the IC50 amounted to 1400 nM in experiment [1] and 280 nM on cPLA2.
Turning to `O=C1NC(=O)/C(=C/c2ccc(C(=O)NC[C@@H]3C[C@@H](OC(c4ccccc4)c4ccccc4)CN3C(=O)c3ccccc3C(=O)c3ccc(F)cc3)cc2)S1` [Compound A-29], the IC50 worked out at 2200 nM in experiment [1] and 86 nM on cPLA2.
For the molecule `O=C1NC(=O)/C(=C/c2ccc(C(=O)NC[C@@H]3C[C@@H](OCc4ccccc4-c4ccc(F)cc4)CN3C(=O)c3ccccc3C(=O)c3ccc(F)cc3)cc2)S1` [Compound A-30], the IC50 in experiment [1] amounted to 460 nM; on cPLA2 it was 98 nM.
As to `O=C1NC(=O)/C(=C/c2ccc(C(=O)NC[C@@H]3C[C@@H](OCc4ccccc4Cc4ccccc4)CN3C(=O)c3ccccc3C(=O)c3ccc(F)cc3)cc2)S1` [Compound A-32], the IC50 in experiment [1] amounted to 570 nM; on cPLA2, 67 nM.
`O=C1NC(=O)/C(=C/c2ccc(C(=O)NC[C@@H]3C[C@@H](OCc4ccccc4Br)CN3C(=O)c3ccccc3C(=O)c3ccc(F)cc3)cc2)S1` [Compound A-33]: the IC50 in experiment [1] was 460 nM; on cPLA2 it was 59 nM.
Consider `O=C1NC(=O)/C(=C/c2ccc(C(=O)NC[C@@H]3C[C@@H](OCc4ccccc4I)CN3C(=O)c3ccccc3C(=O)c3ccc(F)cc3)cc2)S1` [Compound A-34], for which the IC50 worked out at 480 nM in experiment [1] and 71 nM against cPLA2.
Taken in the same sequence, the figures for `O=C1NC(=O)/C(=C/c2ccc(C(=O)NC[C@@H]3C[C@@H](OCc4ccccc4-c4cccc5ccccc45)CN3C(=O)c3ccccc3C(=O)c3ccc(F)cc3)cc2)S1` [Compound A-35] were 180 nM and 40 nM.
Turning to `O=C1NC(=O)/C(=C/c2ccc(C(=O)NC[C@@H]3C[C@@H](OCc4ccccc4-c4ccc5ccccc5c4)CN3C(=O)c3ccccc3C(=O)c3ccc(F)cc3)cc2)S1` [Compound A-36], the IC50 was found to be 180 nM in experiment [1] and 48 nM on cPLA2.

As usually defined, the IC50 is the concentration that gives 50% inhibition. A low value points to inhibition by little substance.
